Columns and labels:
Experiment in all cases: drug sensitivity score (DSS) from 5-dose viability curve (DSS (area-based score, 0 = no response)); higher = more sensitive (stronger viability inhibition); extreme values may be limits of the assay
[1] = system: MDCK wild-type - doxycycline; conditions: doxycycline: none; 72 h
Method in brief: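 Parental MDCK cells without doxycycline were dispensed at 2000 cells/well onto pre-spotted 384-well plates. The plates held an oncology library of 528 drugs at five doses (1-10,000 nM) and were incubated 72 h at 37 °C. Viability was read as CellTiter-Glo luminescence and scaled per plate between vehicle and positive controls. Drug sensitivity scores came from dose-response curve fits in the Breeze pipeline.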

[2] = system: MDCK wild-type + doxycycline; conditions: doxycycline: 10 ng/mL; 72 h
Method in brief: (§1)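 Two MDCK lines, parental and doxycycline-inducible, received doxycycline at 10 ng/mL in the medium before being plated at 2000 cells/well onto a pre-spotted 384-well oncology library of 528 drugs at five doses (1-10,000 nM). Incubation lasted 72 h at 37 °C. Viability was read by CellTiter-Glo luminescence, scaled per plate between vehicle and positive controls, and converted to drug sensitivity scores through Breeze curve fitting.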

[3] = system: MDCK p60AmotL2-inducible + doxycycline (p60AmotL2 expressing); conditions: doxycycline: 10 ng/mL; 72 h
Method in brief: as §1

| SMILES | drug sensitivity score [1] | drug sensitivity score [2] | drug sensitivity score [3] |
| --- | --- | --- | --- |
| C=CC[C@@H]1/C=C(\C)C[C@H](C)C[C@H](OC)[C@H]2O[C@@](O)(C(=O)C(=O)N3CCCC[C@H]3C(=O)O[C@H](/C(C)=C/[C@@H]3CC[C@@H](O)[C@H](OC)C3)[C@H](C)[C@@H](O)CC1=O)[C@H](C)C[C@@H]2OC [Tacrolimus] | 0 | 0 | 0 |
| CNC(=O)c1ccc(-c2cnc3ncc(Cc4ccc5ncccc5c4)n3n2)cc1F [Capmatinib] | 0 | 0 | 0 |
| CO[C@@H]1[C@H](N(C)C(=O)c2ccccc2)C[C@H]2O[C@]1(C)n1c3ccccc3c3c4c(c5c6ccccc6n2c5c31)C(=O)NC4 [Midostaurin] | 13.2 | 11.5 | 13.9 |
| CC(=O)c1cnc2ccc(-c3cc(Cl)c(O)c(Cl)c3)nc2c1N[C@H]1CC[C@H](CN(C)C)CC1 [OTS167] | 17.2 | 19.4 | 18.8 |
| CCn1c(-c2nonc2N)nc2c(C#CC(C)(C)O)ncc(OC[C@H]3CCCNC3)c21 | 0 | 0 | 0.2 |
| CC(C)Nc1cc(-c2c[nH]c(C(=O)N[C@H](CO)c3cccc(Cl)c3)c2)c(Cl)cn1 [Ulixertinib] | 3.2 | 4.9 | 9.6 |
| CN1CCN(CCOc2cc(OC3CCOCC3)c3c(Nc4c(Cl)ccc5c4OCO5)ncnc3c2)CC1 [Saracatinib] | 12.6 | 12.6 | 19.5 |
| CCCOc1ccn2c(C(C)=O)cc(-c3ccccc3S(C)(=O)=O)c2c1 [GSK2801] | 0 | 0 | 0 |
| Cc1cccc(-c2nn3c(c2-c2ccnc4ccc(C(N)=O)cc24)CCC3)n1 [Galunisertib] | 0 | 0 | 0 |
| C[C@]12C=CC(=O)C=C1CC[C@@H]1[C@@H]2[C@@H](O)C[C@@]2(C)[C@H]1CC[C@]2(O)C(=O)CO [Prednisolone] | 1.2 | 0 | 0 |
| C[C@@H]1C=C2C(=O)O[C@@H]3CC[C@H](C1)[C@]23O [Galiellalactone] | 4.3 | 2 | 2.5 |
| Cc1nc(Nc2n[nH]c3c2CN(C(=O)N[C@H](CN(C)C)c2ccccc2)C3(C)C)c2sccc2n1 | 12.4 | 18 | 22.1 |
| Nc1nc(NC2CC2)cc(-c2cccc(Cl)c2Cl)n1 [TH588] | 0 | 0 | 0 |
| c1cc(CN2CCCNCCNCCCNCC2)ccc1CN1CCCNCCNCCCNCC1 [Plerixafor] | 0 | 0 | 0.1 |
| CC(=O)Nc1cccc(-n2c(=O)n(C3CC3)c(=O)c3c(Nc4ccc(I)cc4F)n(C)c(=O)c(C)c32)c1 [Trametinib] | 6.6 | 7.4 | 15.8 |
| Cc1ccc(NC(=O)c2ccc(CN3CCN(C)CC3)cc2)cc1Nc1nc(-c2cccnc2)cs1 [Masitinib] | 5.7 | 8.2 | 5.3 |
| NC(=O)Nc1cc(-c2cccc(F)c2)sc1C(=O)N[C@H]1CCCNC1 [AZD7762] | 0 | 0.2 | 0.3 |
| CON(C)C(=O)N1N=C(c2cc(F)ccc2F)S[C@@]1(CCCN)c1ccccc1 [Filanesib] | 29.1 | 28.7 | 27.5 |
| COc1ccc(S(=O)(=O)Nc2cccnc2Nc2ccc(O)cc2)cc1 [ABT-751] | 15.3 | 16.6 | 16 |
| CO[C@H]1C[C@@H]2CC[C@@H](C)[C@@](O)(O2)C(=O)C(=O)N2CCCC[C@H]2C(=O)O[C@H]([C@H](C)C[C@@H]2CC[C@@H](OC(=O)C(C)(CO)CO)[C@H](OC)C2)CC(=O)[C@H](C)/C=C(\C)[C@@H](O)[C@@H](OC)C(=O)[C@H](C)C[C@H](C)/C=C/C=C/C=C/1C [Temsirolimus] | 0 | 2.3 | 10 |
| O=C(/C=C/c1cccnc1)NCCCCC1CCN(C(=O)c2ccccc2)CC1 [Daporinad] | 29.3 | 29.1 | 29.3 |
| O=c1[nH]c(=O)n([C@H]2C[C@H](O)[C@@H](CO)O2)cc1C(F)(F)F [Trifluridine] | 1.4 | 1.4 | 2.6 |

| SMILES | drug sensitivity score [1] | drug sensitivity score [2] | drug sensitivity score [3] |
| --- | --- | --- | --- |
| CCc1cnn2c(NCc3ccc[n+]([O-])c3)cc(N3CCCC[C@H]3CCO)nc12 [Dinaciclib] | 18.3 | 17 | 16.3 |
| COCCNCc1ccc(-c2cc3nccc(Oc4ccc(NC(=O)C5(C(=O)Nc6ccc(F)cc6)CC5)cc4F)c3s2)nc1 [Sitravatinib] | 0 | 1.2 | 1.7 |
| CC(=O)c1cc2c(o1)C(=O)c1ccccc1C2=O [Napabucasin] | 18.3 | 18.5 | 18.1 |
| COc1ccc(C[C@H](NC(=O)[C@H](C)NC(=O)CN2CCOCC2)C(=O)N[C@@H](Cc2ccccc2)C(=O)C2(C)CO2)cc1 (stereo in doubt) [ONX-0914] | 8.6 | 10.4 | 12.5 |
| COc1cc2/c(=N/c3ccc(Br)cc3F)nc[nH]c2cc1OCC1CCN(C)CC1 [Vandetanib] | 0 | 0 | 4.6 |
| O=C(NC1CCNCC1)c1n[nH]cc1NC(=O)c1c(Cl)cccc1Cl [AT7519] | 8.2 | 8.9 | 9.1 |
| CNC(=O)c1ccccc1Sc1ccc2c(/C=C/c3ccccn3)n[nH]c2c1 [Axitinib] | 0 | 0 | 5.7 |
| COc1ccc(CCc2nc3cc(-c4c(C)noc4C)ccc3n2C[C@H](C)N2CCOCC2)cc1Cl [SGC-CBP30] | 0 | 2.7 | 4.3 |
| CC[C@@H]1CN(C(=O)NCC(F)(F)F)C[C@@H]1c1cnc2cnc3[nH]ccc3n12 [Upadacitinib] | 0 | 0 | 0 |
| COc1cc(CCc2cc(NC(=O)c3ccc(N4CC(C)NC(C)C4)cc3)n[nH]2)cc(OC)c1 (centres undefined) [AZD4547] | 0 | 0 | 0 |
| CC(C)NC[C@@H](C(=O)N1CCN(c2ncnc3c2[C@H](C)C[C@H]3O)CC1)c1ccc(Cl)cc1 [Ipatasertib] | 0 | 0.1 | 2.2 |
| C[C@@H]1CN(C(=O)c2ccc(NC(=O)c3cc(O[C@H](C)c4c(Cl)ccc(F)c4Cl)c(N)nn3)cc2)C[C@H](C)N1 [Ensartinib] | 0 | 0 | 1.4 |
| CC1(C)CCC(CN2CCN(c3ccc(C(=O)NS(=O)(=O)c4ccc(NCC5CCOCC5)c([N+](=O)[O-])c4)c(Oc4cnc5[nH]ccc5c4)c3)CC2)=C(c2ccc(Cl)cc2)C1 [Venetoclax] | 0 | 0 | 0 |
| COc1ccc(-c2nc(N3CCOCC3)c3sc(CN(C)c4ncc(C(=O)NO)cn4)cc3n2)cn1 [CUDC-907] | 27.2 | 28.3 | 30.3 |
| OC[C@H]1O[C@@H](n2cnc3c2N=CNC[C@H]3O)C[C@@H]1O [Pentostatin] | 0 | 0 | 0 |
| COC(=O)N[C@@H](C)CNc1nccc(-c2cn(C(C)C)nc2-c2cc(Cl)cc(NS(C)(=O)=O)c2F)n1 [Encorafenib] | 0.2 | 0 | 0 |
| CN1CCN(c2nc(C3=C(c4c[nH]c5ccccc45)C(=O)NC3=O)c3ccccc3n2)CC1 [Sotrastaurin] | 0 | 0 | 0.3 |
| Cc1cc2c(C(=O)NC[C@H](C)c3ccccc3)c(O)c(O)cc2c(O)c1-c1c(C)cc2c(C(=O)NC[C@H](C)c3ccccc3)c(O)c(O)cc2c1O [Sabutoclax] | 13.9 | 19.3 | 23 |
| C=CC(=O)Nc1cc(Nc2nccc(-c3cn(C)c4ccccc34)n2)c(OC)cc1N(C)CCN(C)C [Osimertinib] | 4.6 | 6.4 | 10.9 |
| COc1cc2nccc(Oc3ccc(NC(=O)C4(C(=O)Nc5ccc(F)cc5)CC4)cc3)c2cc1OC [Cabozantinib] | 0 | 0 | 0 |
| Nc1ncnc2c1c(COc1cccc(Cl)c1)nn2C1CCOCC1 | 0 | 0 | 0.5 |

From the supplement of paper PMC11003180
